Measurements taken from the NIST ThermoML archive (doi:10.1016/j.jct.2019.02.031).
Numbers after ± are expanded uncertainties.

Experiment: xn = mol fraction of the nth substance listed
Details: 101 kPa, Liquid; for viscosity: Falling or rolling sphere viscometry; for mass density: Vibrating tube method

Cn1cc[n+](CCC[N+](C)(C)C)c1.N#C[N-]C#N.N#C[N-]C#N + CC(C)O
Details	mass density [kg/m3]	viscosity [mPa·s]
283.15 K, x1 = 0.1001	905.3 ± 2.2	12.27 ± 1.2
283.15 K, x1 = 0.2	978.56 ± 2.1	31.98 ± 3.2
283.15 K, x1 = 0.2999	1028.83 ± 2	71.59 ± 7.2
283.15 K, x1 = 0.4	1065.91 ± 2	152.1 ± 16
283.15 K, x1 = 0.5001	1094.18 ± 2	290.4 ± 33
283.15 K, x1 = 0.5998	1114.84 ± 2	452 ± 55
283.15 K, x1 = 0.7002	1130.38 ± 2	742.9 ± 97
283.15 K, x1 = 0.8001	1142.95 ± 2	1216 ± 170
283.15 K, x1 = 0.8985	1153.75 ± 2	2301 ± 360
283.15 K, x1 = 1	1162.82 ± 2	4998 ± 870
288.15 K, x1 = 0.1001	901.8 ± 2.2	10.23 ± 1
288.15 K, x1 = 0.2	975.32 ± 2.1	25.55 ± 2.6
288.15 K, x1 = 0.2999	1025.72 ± 2	54.85 ± 5.5
288.15 K, x1 = 0.4	1062.7 ± 2	110.5 ± 11
288.15 K, x1 = 0.5001	1091.1 ± 2	204.6 ± 22
288.15 K, x1 = 0.5998	1111.98 ± 2	303.9 ± 35
288.15 K, x1 = 0.7002	1127.66 ± 2	493.5 ± 60
288.15 K, x1 = 0.8001	1140.22 ± 2	749.8 ± 98
288.15 K, x1 = 0.8985	1150.85 ± 2	1346 ± 190
288.15 K, x1 = 1	1159.76 ± 2	2736 ± 430
293.15 K, x1 = 0.1001	898.28 ± 2.2	8.914 ± 0.9
293.15 K, x1 = 0.2	972.09 ± 2.1	21.4 ± 2.1
293.15 K, x1 = 0.2999	1022.6 ± 2	44.54 ± 4.5
293.15 K, x1 = 0.4	1059.76 ± 2	85.03 ± 8.6
293.15 K, x1 = 0.5001	1088.04 ± 2	153 ± 16
293.15 K, x1 = 0.5998	1108.93 ± 2	219.1 ± 24
293.15 K, x1 = 0.7002	1124.71 ± 2	341.4 ± 40
293.15 K, x1 = 0.8001	1137.27 ± 2	498.6 ± 61
293.15 K, x1 = 0.8985	1147.89 ± 2	843.4 ± 110
293.15 K, x1 = 1	1156.74 ± 2	1608 ± 240
298.15 K, x1 = 0.1001	894.74 ± 2.2	7.619 ± 0.77
298.15 K, x1 = 0.2	968.65 ± 2.1	18.02 ± 1.8
298.15 K, x1 = 0.2999	1019.48 ± 2	35.75 ± 3.6
298.15 K, x1 = 0.4	1056.42 ± 2	66.38 ± 6.7
298.15 K, x1 = 0.5001	1084.68 ± 2	116.5 ± 12
298.15 K, x1 = 0.5998	1105.58 ± 2	163 ± 17
298.15 K, x1 = 0.7002	1121.85 ± 2	245.1 ± 27
298.15 K, x1 = 0.8001	1134.38 ± 2	342.8 ± 40
298.15 K, x1 = 0.8985	1144.95 ± 2	558.1 ± 70
298.15 K, x1 = 1	1153.73 ± 2	1007 ± 140
303.15 K, x1 = 0.1001	891.18 ± 2.2	6.585 ± 0.66
303.15 K, x1 = 0.2	965.32 ± 2.1	15.28 ± 1.5
303.15 K, x1 = 0.2999	1016.38 ± 2	29.22 ± 2.9
303.15 K, x1 = 0.4	1053.15 ± 2	53.45 ± 5.4
303.15 K, x1 = 0.5001	1081.45 ± 2	90.62 ± 9.2
303.15 K, x1 = 0.5998	1102.88 ± 2	124.3 ± 13
303.15 K, x1 = 0.7002	1118.91 ± 2	181.3 ± 20
303.15 K, x1 = 0.8001	1131.5 ± 2	245.7 ± 27
303.15 K, x1 = 0.8985	1141.97 ± 2	387.2 ± 46
303.15 K, x1 = 1	1150.76 ± 2	662.9 ± 85
308.15 K, x1 = 0.1001	–	5.755 ± 0.58
308.15 K, x1 = 0.2	–	13.11 ± 1.3
308.15 K, x1 = 0.2999	–	24.31 ± 2.4
308.15 K, x1 = 0.4	–	43.61 ± 4.4
308.15 K, x1 = 0.5001	–	71.82 ± 7.2
308.15 K, x1 = 0.5998	–	97.07 ± 9.9
308.15 K, x1 = 0.7002	–	137.7 ± 14
308.15 K, x1 = 0.8001	–	182 ± 20
308.15 K, x1 = 0.8985	–	278.9 ± 32
308.15 K, x1 = 1	–	455.4 ± 55
